Laboratory results as given in patent publication US20250152545A1, “NOVEL ANTIVIRAL COMPOSITIONS COMPRISING OLEIC ACID” (SUBINTRO LIMITED, priority 2021, published 2025).

Tests used:
Type in all cases: cell-based
[1] = test system: SARS-COV-2 (strain BetaCoV/France/IDF0571/2020); assay: SARS-COV-2 viral load in apical wash of infected ALI cultured human nasal epithelium (RT-PCR); settings: apical treatment; apilimod (as mesylate) 2 mg/ml 50 uL and/or surfactants 0.15% w/w polysorbate 80 + 0.2% w/w oleic acid; apical wash 48 hrs post inoculation; MOI 0.1
Excerpt: Primary human nasal, trachea, and bronchial epithelial cells can be cultured and differentiated at an air-liquid interface (ALI), forming a pseudostratified mucociliary airway epithelium that is composed of ciliated cells, goblet cells, club cells, and basal cells with an arrangement closely reflective of an in vivo cellular organization. This in vitro model of human airway epithelium (HAE) cultured at an ALI (HAE-ALI) closely recapitulates many important characteristics of respiratory virus-host cell interactions seen in the infected upper and lower airways in vivo and has been used to study many human respiratory viruses, including SARS-COV-2. […]
Virus load was quantified by RT-PCR as reported by Pizzorno et al. (Cell Rep Med. 1 (4): 100059, 2020). […] Viral RNA will be quantified by RT-qPCR (Express One-Step Superscript™ qRT-PCR kit, Invitrogen). SARS-COV-2-specific primer and probes used for viral genome quantification as follows: Target: ORF1b-nsp14 Forward primer (HKU-ORF1b-nsp14F) 5′-[…]-3′ Reverse primer (HKU-ORF1b-nsp14R) 5′-[…]-3′ Probe (HKU-ORF1b-nsp141P) 5′-FAM-[…]-TAMRA-3′. Ct data were determined and relative changes in gene expression were calculated using the […] and shown as the fold reduction of genome copy number (ORF1b-nsp14 gene of SARS-COV-2) relative to the mean of vehicle treated infected control.

[2] = test system: SARS-COV-2 infected ALI cultured human nasal epithelium; settings: apical treatment, apilimod (as mesylate) 2 mg/ml 50 uL; 48 hrs post virus inoculation
[3] = test system: H1N1 (strain A/Switzerland/7717739/2013)

## Cc1cccc(/C=N/Nc2cc(N3CCOCC3)nc(OCCc3ccccn3)n2)c1 [apilimod]
[1]
  reduction of viral load (genome copy number, ORF1b-nsp14) compared with virus infection control: 0.1 log
[2]
  inhibition of virus-induced reduction in TEER: 48%

## CCC(CC)O[C@@H]1C=C(C(=O)O)C[C@H](N)[C@H]1NC(C)=O [oseltamivir carboxylate]
[3]; 10 µM in a basal chamber, Day 0, 24 hrs post inoculation
  reduction of viral load (assay control): 1.7 log
[3]; apical treatment, oseltamivir carboxylate 1 μM and/or surfactants 0.15% polysorbate 80 + 0.2% oleic acid, apical wash 24 hrs post inoculation
  reduction of viral load (genome copy number) compared with virus infection control: 1.0 log
